According to patent publication US10653688B2, “6-(6-membered heteroaryl and aryl)isoquinolin-3-yl carboxamides and preparation and use thereof” (Samumed, LLC, priority 2017, dated 2020):

Assays:
[1] = tested on: Wnt activity (SW480 colon carcinoma cells stably expressing the Sp5-Luc reporter gene); test: Wnt activity screening assay (Sp5-Luc reporter gene assay); format: cell-based, human; conditions: Homo sapiens; for EC50: 36 to 48 hours; for inhibition at 10 µM: read-out: percent inhibition at 10 μM (given for EC50 >10 μM), 10 μM
Summary of the method: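 EC50 values come from a variable-slope four-parameter fit of luminescence normalized to DMSO-only wells. The read-out follows 36–48 h incubation at 37 °C, 5% CO2, in DMEM containing 1% fetal bovine serum. Cells are hygromycin-selected SW480 stably expressing firefly luciferase under a Wnt-responsive Sp5 promoter (eight TCF/LEF sites).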

[2] = tested on: Cyclin D1 phosphorylation at Threonine 286 (pCcnD1) over total Cyclin D1 in SH-SY5Y cells; test: phosphoCcnD1 to total CcnD1 ratio (PTT) cell-based assay, western blot; conditions: Homo sapiens, 48 hours
Method: Representative compounds were screened using the cell-based assay procedure for the ratio of signal of Cyclin D1 phosphorylation at Threonine 286 (pCcnD1) over the signal of total Cyclin D1 (CcnD1) (abbreviated: phosphoCcnD1 to total CcnD1 ratio, or PTT) as described below.
SH-SY5Y cells (human neuroblastoma, Sigma, Saint-Louis, Mo.) were cultured in 1:1 DMEM/F-12 medium supplemented with 15% FBS, 1% non-essential amino acid, and 1% penicillin/streptomycin.
SH-SY5Y cells were seeded at 1.0×10^5 cells in 1 mL per well in a 24-well plate. After cell adherence was confirmed, DMSO-resuspended Samumed compounds were dispensed to eight wells as a serial dilution from 10 μM to 4.6 nM final concentration in medium, or at 1.1 μM to 4.6 nM with particularly potent compounds. Cells were exposed to Samumed compounds for 48 hours in a 37° C. incubator.
Wells of compound-treated cells were visually checked for cell death before being washed with 500 μL per well of 1×DPBS supplemented with phosphatase inhibitor diluted to 1×. Cells were then lysed with 90 μL 1×RIPA buffer supplemented with phosphatase and protease inhibitors (each diluted to a final 1×). After scraping, 60 μL of cell lysate from each sample was used to dilute 4×LDS (ThermoFisher, NP0007) and 20×XT reducing agent (Bio-Rad, 1610792), each diluted to 1× final. All samples were then denatured via boiling at 95° C. Denatured cell sample lysates were directly tested for pCcnD1 and total CcnD1 signal by Western blot techniques and analysis. Specifically, denatured lysates were directly transferred to NuPAGE™ 4-12% Bis-Tris Midi Protein Gels, 26-well gels (ThermoFisher, WG1403BOX). Gels were transferred to […] nitrocellulose membranes via iBlot™ Transfer Stack, nitrocellulose, regular size (ThermoFisher, IB301031). Membranes were blocked with 1×TBS, 5% milk (Bio-Rad, 1706404XTU) before being probed for overnight with either anti-pCcnD1 primary antibody (Cell Signaling Technology, 2978S) or anti-total CcnD1 primary antibody (Cell Signaling Technology, 3300S) diluted 1:500 in 1×TBS-0.05% Tween-20, 3% milk. After overnight incubation in primary antibodies, membranes were washed profusely with 1×TBS-0.05% Tween-20 and probed for 1 hour with secondary anti-rabbit/HRP conjugate (Cell Signaling Technology, 7074S) diluted 1:1000 in 1×TBS-0.05% Tween-20, 3% milk. After incubation in secondary antibody, membranes were washed with 1×TBS-0.05% Tween-20.
Probed and washed membranes were developed for pCcnD1 or total CcnD1 signal with SuperSignal™ West Femto Maximum Sensitivity Substrate (ThermoFisher, 34096) using the ChemoDoc-It^2 (UVP) and related GelDocIt imaging software. Blots were then stripped, blocked, stained with anti-β-actin/HRP conjugate antibody (Cell Signaling Technology, 5125S), developed, and imaged for housekeeping β-actin protein control as previously described. Densitometry was measured with ImageJ (NIH) and signal was used to plot, draw the curves fitting, and determine the EC50 values in GraphPad Prism for tested Samumed compounds.

[3] = tested on: secreted cytokines TNFα, IL-6 and KC-GRO in BV-2 cells (mouse microglial cells); test: Secreted cytokines in lipopolysaccharide-stimulated mouse glial cell line; format: cell-based; conditions: LPS 250 ng/mL 5 hours, table does not say which cytokine
Summary of the method: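 BV-2 cells seeded at 35,000/well were pretreated overnight with compound (10 μM to 4.6 nM final), then stimulated 5 h with 250 ng/mL E. coli O111:B4 LPS. Supernatant TNFα, IL-6 and KC-GRO were quantified by electrochemiluminescence against standard curves (pg/mL) to fit EC50. Cytotoxicity was checked by CellTiter-Glo ATP read-out.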

| SMILES | EC50 [1] | EC50 [2] | EC50 [3] | inhibition at 10 µM [1] |
| --- | --- | --- | --- | --- |
| O=C(Nc1cc2cc(-c3cncc(CN4CCCC4)c3)ccc2cn1)C1CC1 [Compound 51, N-(6-(5-(Pyrrolidin-1-ylmethyl)pyridin-3-yl)isoquinolin-3-yl) cyclopropanecarboxamide] | 1260 nM | 974 nM | 171 nM |  |
| CN1CCC(C(=O)Nc2cc3cc(-c4cncc(F)c4)ccc3cn2)CC1 [Compound 19, N-(6-(5-Fluoropyridin-3-yl)isoquinolin-3-yl)-1-methylpiperidine-4-carboxamide] | > 10000 nM | 140 nM | 124 nM | 35.9% |
| CN1CCC(C(=O)Nc2cc3cc(-c4cncc(C#N)c4)ccc3cn2)CC1 [Compound 32, N-(6-(5-Cyanopyridin-3-yl)isoquinolin-3-yl)-1-methylpiperidine-4-carboxamide] | > 10000 nM | 1 nM | 640 nM | 24.2% |
| COc1cncc(-c2ccc3cnc(NC(=O)C4CCN(C)CC4)cc3c2)c1 [Compound 33, N-(6-(5-Methoxypyridin-3-yl)isoquinolin-3-yl)-1-methylpiperidine-4-carboxamide] | 810 nM | 9100 nM | 62 nM |  |
| O=C(Nc1cc2cc(-c3cncc(CN4CCC(O)CC4)c3)ccc2cn1)C1CC1 [Compound 53, N-(6-(5-((4-Hydroxypiperidin-1-yl)methyl)pyridin-3-yl)isoquinolin-3-yl) cyclopropanecarboxamide] | 691 nM | 30 nM | 55 nM |  |
| O=C(CCN1CCOCC1)Nc1cc2cc(-c3cncc(F)c3)ccc2cn1 [Compound 23, N-(6-(5-Fluoropyridin-3-yl)isoquinolin-3-yl)-3-morpholinopropanamide] | > 10000 nM | 80 nM | 628 nM | 38.7% |
| CN1CCN(Cc2cncc(-c3ccc4cnc(NC(=O)C5CC5)cc4c3)c2)CC1 [Compound 56, N-(6-(5-((4-Methylpiperazin-1-yl)methyl)pyridin-3-yl)isoquinolin-3-yl) cyclopropanecarboxamide] | 1230 nM | 45 nM | 177 nM |  |
| O=C(Cn1ccnc1)Nc1cc2cc(-c3cccnc3)ccc2cn1 [Compound 15, 2-(1H-Imidazol-1-yl)-N-(6-(pyridin-3-yl)isoquinolin-3-yl)acetamide] | 3100 nM | 127 nM | 21 nM |  |
| O=C(Nc1cc2cc(-c3cccnc3)ccc2cn1)C1CC1 [Compound 6, N-(6-(Pyridin-3-yl)isoquinolin-3-yl)cyclopropanecarboxamide] | 1100 nM | 276 nM | 33 nM |  |
| Cc1nccn1CC(=O)Nc1cc2cc(-c3cccnc3)ccc2cn1 [Compound 14, 2-(2-Methyl-1H-imidazol-1-yl)-N-(6-(pyridin-3-yl)isoquinolin-3-yl) acetamide] | 3600 nM | 205 nM | 136 nM |  |
| CN1CCC(C(=O)Nc2cc3cc(-c4cccnc4)ccc3cn2)CC1 [Compound 8, 1-Methyl-N-(6-(pyridin-3-yl)isoquinolin-3-yl)piperidine-4-carboxamide] | 1280 nM | 36 nM | 36 nM |  |

Now from value to compound, other results behind:

| EC50 [1] | EC50 [2] | EC50 [3] | SMILES | inhibition at 10 µM [1] |
| --- | --- | --- | --- | --- |
| > 10000 nM | 48 nM | 157 nM | CN1CCN(CC(=O)Nc2cc3cc(-c4cccnc4)c(F)cc3cn2)CC1 [Compound 145, N-(7-Fluoro-6-(pyridin-3-yl)isoquinolin-3-yl)-2-(4-methylpiperazin-1-yl) acetamide] | 26.2% |
| > 10000 nM | 16 nM | 198 nM | [2H]C1([2H])OC([2H])([2H])C([2H])([2H])N(CC(=O)Nc2cc3cc(-c4cccnc4)ccc3cn2)C1([2H])[2H] [Compound 151, 2-(Morpholino-d8)-N-(6-(pyridin-3-yl)isoquinolin-3-yl)acetamide] | 10.7% |
| > 10000 nM | 298 nM | 157 nM | O=C(CN1CCOCC1)Nc1cc2cc(-c3cccnc3)c(F)cc2cn1 [Compound 144, N-(7-Fluoro-6-(pyridin-3-yl)isoquinolin-3-yl)-2-morpholinoacetamide] | 23% |
| > 10000 nM | 447 nM | 194 nM | CN1CCC(C(=O)Nc2cc3cc(-c4cnccn4)ccc3cn2)CC1 [Compound 75, 1-Methyl-N-(6-(pyrazin-2-yl)isoquinolin-3-yl)piperidine-4-carboxamide] | 33.7% |
| 1140 nM | 193 nM | 152 nM | O=C(Nc1cc2cc(-c3cncc(CN4CCOCC4)c3)ccc2cn1)C1CC1 [Compound 57, N-(6-(5-(Morpholinomethyl)pyridin-3-yl)isoquinolin-3-yl) cyclopropanecarboxamide] |  |
| 3150 nM | > 10000 nM | 6080 nM | CN1CCN(c2cc(C(=O)Nc3cc4cc(-c5cnc6ocnc6c5)ccc4cn3)ccn2)CC1 [Compound 132, 2-(4-Methylpiperazin-1-yl)-N-(6-(oxazolo[5,4-b]pyridin-6-yl)isoquinolin-3-yl)isonicotinamide] |  |
| 2590 nM | 37 nM | 2240 nM | Cc1cc2ncc(-c3ccc4cnc(NC(=O)c5ccnc(N6CCN(C)CC6)c5)cc4c3)cc2[nH]1 [Compound 135, N-(6-(2-Methyl-1H-pyrrolo[3,2-b]pyridin-6-yl)isoquinolin-3-yl)-2-(4-methylpiperazin-1-yl)isonicotinamide] |  |
| > 10000 nM | 3000 nM | 1470 nM | CC(C)CN1CCCC(C(=O)Nc2cc3cc(-c4cnccn4)ccc3cn2)CC1 (centres unmarked) [Compound 81, 1-Isobutyl-N-(6-(pyrazin-2-yl)isoquinolin-3-yl)azepane-4-carboxamide] | 3.9% |
| > 10000 nM | 359 nM | 628 nM | COc1cncc(-c2ccc3cnc(NC(=O)CN4CCOCC4)cc3c2)c1 [Compound 147, N-(6-(5-Methoxypyridin-3-yl)isoquinolin-3-yl)-2-morpholinoacetamide] | 38.8% |
| > 10000 nM | 250 nM | 3230 nM | [2H]c1nc([2H])c(-c2ccc3cnc(NC(=O)CN4CCCC4)cc3c2)c([2H])c1[2H] [Compound 60, N-(6-(pyridin-3-yl-d4)isoquinolin-3-yl)-2-(pyrrolidin-1-yl)acetamide] | 41.9% |
| > 10000 nM | 68 nM | 201 nM | Cc1cncc(-c2ccc3cnc(NC(=O)CN4CCOCC4)cc3c2)c1 [Compound 146, N-(6-(5-Methylpyridin-3-yl)isoquinolin-3-yl)-2-morpholinoacetamide] | 38.5% |
